Measurements reported in patent publication US7771713B2, “Chemical composition that attract arthropods” (priority 1999, dated 2010).

How the values were obtained:
Anopheles albimanus = assay: Olfactometer attraction test of compounds and compositions; assay type: in vivo;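 note: olfactometer with a treatment port and a matching control port using identical delivery device and conditions, both opened together, three tests per battery, each run in its own cage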
Aedes aegypti = assay: Olfactometer attraction test, treatment port vs control port, approximately 75 female mosquitoes; assay type: in vivo; settings: for Response with L-LA (%): compound 500 μL together with L-lactic acid; for Δ [(Resp with LA) − Resp] (%): difference between response with L-lactic acid and response alone
Experimental: The tests were conducted in an olfactometer (55 ft^3/min airflow, 80° F., 60% R.H.) as described by Posey, J. Med. Entomol., 35, 330-334 (1998); and LA is lactic acid. Mosquitoes were allowed to settle at least one hour prior to testing. The olfactometer was cleaned after each battery of tests. Each battery consisted of three tests, conducted at 08:30, 11:00 and 13:00 hours local time. Each of the three tests was conducted in a separate cage. The control consisted of identical sample delivery devices and conditions compared to that of the treatment side. Both the treatment and control ports were opened and closed simultaneously when inserting a new treatment/control.

[1] = compound alone, high dose of 500 μL
[2] = no Base, Activator1 dose 500, 60 mL glass petri dish

Row | SMILES | % caught (Anopheles albimanus; single treatment, 500 μL) [%] | Response with L-LA (%) (Aedes aegypti) | Response (%) (Aedes aegypti; [1]) | Δ [(Resp with LA) − Resp] (%) (Aedes aegypti) | also measured
1 | CC(=O)C=CC=C(C)C [6-Methyl-3,5-Heptadien-2-one] | 18.7 | – | – | – | –
2 | CCCCCC(=O)CCCCC [6-Undecanone] | 3.9 | – | – | – | –
3 | CC(=O)CCC=C(C)C [6-methyl-5-hepten-2-one] | 26.0 | 16 | 9 | 27 | –
4 | CC(=O)O [Acetic Acid] | 2.7 | – | – | – | –
5 | CC(=O)CCC(C)=O [Acetonylacetone] | 0.0 | – | – | – | –
6 | C=CCSSCC=C [Allyl Disulfide] | 0.0 | – | – | – | –
7 | CCS [Ethanethiol] | 40.0 | – | – | – | –
8 | CCOC(C)=O [Ethyl Acetate] | 28.4 | – | – | – | –
9 | O=CO [Formic Acid] | – | – | – | – | % caught (Anopheles albimanus; in vivo): 0.0%
10 | OCc1ccco1 [Furfuryl Alcohol] | 46.7 | – | – | – | –
11 | O=CC(=O)O [Glyoxylic Acid] | 1.3 | – | – | – | –
12 | c1ccc2[nH]ccc2c1 [Indole] | 1.3 | – | – | – | –
13 | CC1=CC(=O)CC(C)(C)C1 [Isophorone] | 13.3 | – | – | – | –
14 | CCCCCCCCCCCC(=O)O [Laurie Acid] | 1.3 | – | – | – | –
15 | CC(=O)C=C(C)C [Mesityl Oxide] | 28.4 | – | – | – | –
16 | CCCC(=O)OC [Methylbutyrate] | 55.8 | – | – | – | –
17 | CCCCC [Pentane] | 2.7 | – | – | – | –
18 | CC(C)=CC(=O)C=C(C)C [Phorone] | 50.6 | – | – | – | –
19 | c1cnccn1 [Pyrazine] | 29.3 | – | – | – | –

Row | SMILES | % caught (Anopheles albimanus; single treatment, 500 μL) [%] | Response with L-LA (%) (Aedes aegypti) | Response (%) (Aedes aegypti; [1]) | Δ [(Resp with LA) − Resp] (%) (Aedes aegypti) | also measured
20 | CC(=O)C(=O)O [Pyruvic Acid] | 1.4 | – | – | – | Response Avg % (Aedes aegypti; Base alone, dose 50 uL): 30.7%
21 | ClC(Cl)=C(Cl)Cl [Tetrachloroethylene] | 17.3 | – | – | – | –
22 | c1ccsc1 [Thiophene] | 68.0 | – | – | – | –
23 | N#CC(Cl)(Cl)Cl [Trichloroacetonitrile] | 65.3 | – | – | – | –
24 | ClC=C(Cl)Cl [Trichloroethylene] | 57.9 | – | – | – | –
25 | CC(=O)c1ccccc1 [acetophenone] | 7.9 | 46 | 9 | 37 | –
26 | O=Cc1ccccc1 [benzaldehyde] | 35.5 | 21 | 9 | 12 | –
27 | N#Cc1ccccc1 [benzonitrile] | 3.8 | 48 | 4 | 42 | Response Avg % (Aedes aegypti; single compound, dose 500 (μL), 60 mL glass petri dish, Aedes aegypti attraction): 4.0%
28 | CCCC=O [butyraldehyde] | 1.3 | 7 | 6 | 1 | Response (%) (Aedes aegypti; base compound alone (mode of action similar to lactic acid)): 6%; Response with Ace (%) (Aedes aegypti; base compound together with acetone): 7%; Δ [(Resp with Ace) − Resp] (%) (Aedes aegypti; difference between response with acetone and response alone): 1%
29 | S=C=S [carbon disulfide] | 56.0 | 89 | 82 | 7 | –
30 | ClC(Cl)(Cl)Cl [carbon tetrachloride] | 74.0 | 92 | 92 | 0 | –
31 | ClC(Cl)Cl [chloroform] | – | 76 | 24 | 52 | % caught (Anopheles albimanus; in vivo): 78.7%
32 | CCSSCC [diethyl disulfide] | 2.8 | 49 | 33 | 16 | –
33 | CCSCC [diethyl sulfide] | 33.3 | 54 | 15 | 39 | –
34 | CSSC [dimethyl disulfide] | 97.3 | 86 | 36 | 50 | –
35 | CSC [dimethyl sulfide] | 68.4 | 79 | 32 | 47 | –
36 | CSSSC [dimethyl trisulfide] | 91.8 | 67 | 21 | 46 | Response Avg % (Aedes aegypti; [2]): 21.0%
37 | C=CSCC [ethyl vinyl sulfide] | 25.4 | 55 | 18 | 37 | Response Avg % (Aedes aegypti; [2]): 18.0%
38 | CCCCC/C=C/C(C)=O [t-3-Nonen-2-one] | 10.7 | – | – | – | –
